Several values for one entry are separate records, joined by “and”; a condition that tells them apart may be missing. Identical values can stand only once. Entries after “also recorded” stand apart in the source; their conditions may differ.
Tested on: CD8^+T cells
Assay: Multifunctionality of CD8^+T cells of healthy subjects after metformin treatment of PBMC (flow cytometer)
Format: cell-based, human
Method: 1. Peripheral blood was obtained from a test subject, and PBMC was separated by a density-gradient centrifugation using a lymphocyte-separating reagent Ficoll-Paque® (GE Healthcare). 3 mL of Ficoll-Paque® was dispensed in a 15-mL tube. 8 mL of the peripheral blood was gently placed on the reagent. At this time, care should be taken not to mix Ficoll-Paque® with the peripheral blood. Centrifugation was performed at 400 g for 30 minutes, thereby separating PBMC. 2. The separated PBMC was preserved in a −150° C. freezer or liquid nitrogen using Bambang Car cell preservation liquid by adjusting the cell number to 2.0×10^6 cell/tube. 3. In the test, the thawed PBMC was cultured for 1 to 10 hours in the presence or absence of […]. The culture was performed using a 24-well plate, and the cell number was adjusted to about 5.0×10^5 cell/well. 4. The cells were collected after 1 to 10 hours, washed with medium, and cultured in the presence of a cell activation reagent (potent nanomolar activator of protein kinase C (PMA, 50 ng/mL), ionomycin (1 μM)) for 6 hours, thereby non-specifically stimulating T cells. At this time, BD Gorgi Stop™ was added to keep the produced cytokines inside the cells. 5. The cells were isolated and washed twice with a cell-staining buffer. First, staining of CD8, PD-1, Tim-3, which are molecules expressed on the T cell surface, was performed. In the staining, a staining buffer was added in an amount of 50 μL per sample. The culture was performed at 4° C. for 30 minutes. 6. The cells were collected and washed twice with a cell-staining buffer. 500 μL of BD Cytofix/Cytoperm was added and cultured at 4° C. for 30 minutes. 7. The cells were collected and washed twice with BD Perm/Wash™. Staining of cytokines IL-2, TNFα, and IFNγ was performed. In the staining, BD Perm/Wash™ was added in an amount of 50 μL per sample. The culture was performed at 4° C. for 30 minutes. 8. The cells were collected and washed twice with BD Perm/Wash™, and 200 μL of BD Perm/Wash™ was added. 9. Analysis was performed using a FACSCanto™ II flow cytometer (Becton, Dickinson and Company).
Among the PBMC treated with PMA/ionomycin in the method shown in (2) above, first, a gate was applied to CD8^+T cells using a FACSCanto™ II flow cytometer (Becton, Dickinson and Company), and then […] were removed by FSC-A and FSC-H. Using parameters FSC-A and SSC-A, a gate was applied to a lymphocyte group, thereby analyzing expression of PD-1 and Tim-3. Further, intracellular cytokines IFNγ, TNFα, and IL-2 were stained, and multifunctionality of CD8^+T cells contained in the PBMC was analyzed (FIG. 1).
PBMC obtained from healthy subjects (N=10) was cultured for an hour in the presence or absence of metformin by the method shown in (2). After metformin was removed, the PBMC was subjected to stimulating culture with PMA/ionomycin for 6 hours by the method shown in (3). Among the resulting PBMC, CD8^+T cells capable of simultaneously producing three kinds of cytokines, i.e., IFNγ, TNFα, and IL-2, were detected. The CD8^+T cells untreated with metformin were determined to be 0.11%, and the CD8^+T cells treated with metformin were determined to be 0.09% (FIG. 2). Accordingly, it was judged that multifunctionality of CD8^+T cells was not increased by a metformin treatment in healthy subjects.
In the PBMC of healthy subjects treated as above, the ratios of CD8^+T cells producing three kinds of cytokines (IFNγ/TNFα/IL-2), CD8^+T cells producing two kinds of cytokines (IFNγ/TNFα or IFNγ/IL-2), and CD8^+T cells producing one kind of cytokine (IFNγ) to the entire CD8^+T cells were calculated and shown in Table 1. The calculation results were compared between the metformin-untreated group (control) and the metformin-treated group (metformin).

[1] = PD-1+, Tim-3+, Healthy Subjects, subjects/total
[2] = PD-1+, Tim-3−, Healthy Subjects, subjects/total
[3] = PD-1−, Tim-3+, Healthy Subjects, subjects/total
[4] = PD-1−, Tim-3−, Healthy Subjects, subjects/total
[5] = Total CD8T, Healthy Subjects, subjects/total
[6] = healthy subjects, PBMC cultured an hour with metformin, then PMA/ionomycin 6 hours, each table row = one subject
[7] = healthy subjects, each table row = one subject
[8] = total CD8^+T cells, healthy subjects

For `CN(C)C(=N)N=C(N)N` [metformin], the “Decrease, IFNγ 1-cytokine-producing cell” value [1] was 4/10, the “Decrease, IFNγ/IL-2 2-cytokine-producing cell” value [1] was 4/10 and the “Decrease, IFNγ/TNFα 2-cytokine-producing cell” value [1] was 6/10. The “Decrease, IFNγ/TNFα/IL2 3-cytokine-producing cell” value [1] was 1/10, the “Increase, IFNγ 1-cytokine-producing cell” value [1] was 6/10 and the “Increase, IFNγ/IL-2 2-cytokine-producing cell” value [1] was 2/10. For the same compound, the “Increase, IFNγ/TNFα 2-cytokine-producing cell” value [1] was 3/10, the “Increase, IFNγ/TNFα/IL2 3-cytokine-producing cell” value [1] was 3/10 and 5/10 and the “No Change, IFNγ 1-cytokine-producing cell” value [1] was 0/10. The “No Change, IFNγ/IL-2 2-cytokine-producing cell” value [1] was 4/10, the “No Change, IFNγ/TNFα 2-cytokine-producing cell” value [1] was 1/10 and the “No Change, IFNγ/TNFα/IL2 3-cytokine-producing cell” value [1] was 4/10. The “Decrease, IFNγ 1-cytokine-producing cell” value [2] was 5/10, the “Decrease, IFNγ/IL-2 2-cytokine-producing cell” value [2] was 6/10 and the “Decrease, IFNγ/TNFα 2-cytokine-producing cell” value [2] was 4/10. For the same compound, the “Decrease, IFNγ/TNFα/IL2 3-cytokine-producing cell” value [2] was 5/10, the “Increase, IFNγ 1-cytokine-producing cell” value [2] was 2/10 and the “Increase, IFNγ/IL-2 2-cytokine-producing cell” value [2] was 3/10. For the same compound, the “Increase, IFNγ/TNFα 2-cytokine-producing cell” value [2] was 3/10, the “Increase, IFNγ/TNFα/IL2 3-cytokine-producing cell” value [2] was 3/10 and the “No Change, IFNγ 1-cytokine-producing cell” value [2] was 3/10. For the same compound, the “No Change, IFNγ/IL-2 2-cytokine-producing cell” value [2] was 1/10, the “No Change, IFNγ/TNFα 2-cytokine-producing cell” value [2] was 3/10 and the “No Change, IFNγ/TNFα/IL2 3-cytokine-producing cell” value [2] was 2/10. The “Decrease, IFNγ 1-cytokine-producing cell” value [3] was 6/10, the “Decrease, IFNγ/IL-2 2-cytokine-producing cell” value [3] was 4/10 and the “Decrease, IFNγ/TNFα 2-cytokine-producing cell” value [3] was 5/10. For the same compound, the “Decrease, IFNγ/TNFα/IL2 3-cytokine-producing cell” value [3] was 3/10, the “Increase, IFNγ 1-cytokine-producing cell” value [3] was 2/10 and the “Increase, IFNγ/IL-2 2-cytokine-producing cell” value [3] was 1/10. The “Increase, IFNγ/TNFα 2-cytokine-producing cell” value [3] was 3/10, the “Increase, IFNγ/TNFα/IL2 3-cytokine-producing cell” value [3] was 1/10 and the “No Change, IFNγ 1-cytokine-producing cell” value [3] was 2/10. The “No Change, IFNγ/IL-2 2-cytokine-producing cell” value [3] was 5/10, the “No Change, IFNγ/TNFα 2-cytokine-producing cell” value [3] was 2/10 and the “No Change, IFNγ/TNFα/IL2 3-cytokine-producing cell” value [3] was 6/10. The “Decrease, IFNγ 1-cytokine-producing cell” value [4] was 4/10, the “Decrease, IFNγ/IL-2 2-cytokine-producing cell” value [4] was 5/10 and the “Decrease, IFNγ/TNFα 2-cytokine-producing cell” value [4] was 4/10. For the same compound, the “Decrease, IFNγ/TNFα/IL2 3-cytokine-producing cell” value [4] was 7/10, the “Increase, IFNγ 1-cytokine-producing cell” value [4] was 2/10 and the “Increase, IFNγ/IL-2 2-cytokine-producing cell” value [4] was 4/10. For the same compound, the “Increase, IFNγ/TNFα 2-cytokine-producing cell” value [4] was 4/10, the “Increase, IFNγ/TNFα/IL2 3-cytokine-producing cell” value [4] was 2/10 and the “No Change, IFNγ 1-cytokine-producing cell” value [4] was 4/10. The “No Change, IFNγ/IL-2 2-cytokine-producing cell” value [4] was 1/10, the “No Change, IFNγ/TNFα 2-cytokine-producing cell” value [4] was 2/10 and the “No Change, IFNγ/TNFα/IL2 3-cytokine-producing cell” value [4] was 1/10. For the same compound, the “Increase + No Change, IFNγ/TNFα/IL2, share of subjects” value (Total CD8T, Healthy Subjects) was 30%, the “Decrease, IFNγ 1-cytokine-producing cell” value [5] was 2/10 and the “Decrease, IFNγ/IL-2 2-cytokine-producing cell” value [5] was 6/10. For the same compound, the “Decrease, IFNγ/TNFα 2-cytokine-producing cell” value [5] was 5/10, the “Decrease, IFNγ/TNFα/IL2 3-cytokine-producing cell” value [5] was 7/10 and the “Increase + No Change, IFNγ/TNFα/IL2” value [5] was 3/10. The “Increase, IFNγ 1-cytokine-producing cell” value [5] was 4/10, the “Increase, IFNγ/IL-2 2-cytokine-producing cell” value [5] was 3/10 and the “Increase, IFNγ/TNFα 2-cytokine-producing cell” value [5] was 3/10. For the same compound, the “Increase, IFNγ/TNFα/IL2 3-cytokine-producing cell” value [5] was 0/10, the “No Change, IFNγ 1-cytokine-producing cell” value [5] was 4/10 and the “No Change, IFNγ/IL-2 2-cytokine-producing cell” value [5] was 1/10. The “No Change, IFNγ/TNFα 2-cytokine-producing cell” value [5] was 2/10, the “No Change, IFNγ/TNFα/IL2 3-cytokine-producing cell” value [5] was 3/10 and the “CD8^+T cells capable of simultaneously producing IFNγ, TNFα and IL-2, treated with metformin” value (healthy subjects, FIG. 2, untreated with metformin 0.11%) was 0.09%. The “ratio of CD8^+T cells producing one kind of cytokine (IFNγ) to the entire CD8^+T cells, metformin” value [6] was 13.18% and 16.70% and 8.18% and 11.64% and 4.62% and 1.68% and 6.23% and 0.95% and 1.87% and 12.00%, the “ratio of CD8^+T cells producing two kinds of cytokines (IFNγ/IL-2) to the entire CD8^+T cells, metformin” value [6] was 0.47% and 0.48% and 0.71% and 0.28% and 0.15% and 0.03% and 0.21% and 0.05% and 0.14% and 0.24% and the “ratio of CD8^+T cells producing two kinds of cytokines (IFNγ/TNFα) to the entire CD8^+T cells, metformin” value [6] was 31.38% and 3.54% and 32.26% and 11.52% and 16.84% and 1.50% and 11.17% and 0.12% and 1.08% and 3.98%. For the same compound, the “change of IFNγ producing CD8^+T cell ratio by metformin treatment vs control” value [7] was “→ (other cases with no significant differences); also recorded: ↑ (a 10% or more increase by a metformin treatment); also recorded: ↓ (a 10% or more decrease by a metformin treatment)”, the “change of IFNγ/IL-2 producing CD8^+T cell ratio by metformin treatment vs control” value [7] was “↓ (a 10% or more decrease by a metformin treatment); also recorded: ↑ (a 10% or more increase by a metformin treatment); also recorded: → (other cases with no significant differences)” and the “change of IFNγ/TNFα producing CD8^+T cell ratio by metformin treatment vs control” value [7] was “↓ (a 10% or more decrease by a metformin treatment); also recorded: ↑ (a 10% or more increase by a metformin treatment); also recorded: → (other cases with no significant differences)”. For the same compound, the “multifunctionality of CD8^+T cells by a metformin treatment” value (healthy subjects, judgement from FIG. 2) was “not increased”, the “decrease in multifunctionality (three kinds of cytokines), share of subjects” value [8] was 70% and the “increase in multifunctionality (three kinds of cytokines), share of subjects” value [8] was 0%.

— patent publication US20170231929A1, “METHOD FOR ENHANCING IMMUNE CELL FUNCTION AND METHOD FOR ASSESSING IMMUNE CELL MULTIFUNCTIONALITY” (NATIONAL UNIVERSITY CORPORATION OKAYAMA UNIVERSITY, priority 2014, published 2017)
